Test results: patent US20090270416A1, “N-OXIDES OF DIARYLUREA DERIVATIVES AND THEIR USE AS Chk1 INHIBITORS FOR THE TREATMENT OF CANCER” (SENTINEL ONCOLOGY LIMITED, priority 2006, published 2009)

Legend:
[1] = biological target: T1, CHK1 (h) (Homo sapiens, UniProt O14757); assay: Chk-1 kinase inhibiting activity (Upstate radiometric assay); format: biochemical
T1 construct: purchased Upstate Ltd (assay run at Upstate)
T1 sequence (O14757 1-476): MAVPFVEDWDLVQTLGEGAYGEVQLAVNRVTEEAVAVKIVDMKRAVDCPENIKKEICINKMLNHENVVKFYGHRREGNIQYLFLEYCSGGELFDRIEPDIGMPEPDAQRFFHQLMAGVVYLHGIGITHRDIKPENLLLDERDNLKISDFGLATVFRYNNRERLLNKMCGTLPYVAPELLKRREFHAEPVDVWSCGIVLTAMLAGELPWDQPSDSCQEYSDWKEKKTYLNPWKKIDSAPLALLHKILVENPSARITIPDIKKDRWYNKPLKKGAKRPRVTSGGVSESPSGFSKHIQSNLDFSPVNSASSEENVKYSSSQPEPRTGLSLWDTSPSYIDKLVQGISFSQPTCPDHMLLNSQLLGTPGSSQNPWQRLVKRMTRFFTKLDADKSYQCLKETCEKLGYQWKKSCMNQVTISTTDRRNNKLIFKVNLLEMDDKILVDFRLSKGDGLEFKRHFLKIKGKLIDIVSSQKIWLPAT
Experimental: The N-oxide compounds of the invention and their tertiary amine precursors were tested for activity against the Chk-1 kinase.
The Chk-1 assay was conducted at Upstate Ltd, Gemini Crescent, Dundee Technology Park, Dundee, DD2 1 SW, UK in accordance with the protocol set out below. In a final reaction volume of 25 μl, CHK1 (h) (5-10 mU) is incubated with 8 mM MOPS pH 7.0, 0.2 mM EDTA, 200 μM […], 10 mM MgAcetate and γ-33P-ATP] (specific activity approx. 500 cpm/pmol, concentration as required). The reaction is initiated by the addition of the MgATP mix. After incubation for 40 minutes at room temperature, the reaction is stopped by the addition of 5 μl of a 3% phosphoric acid solution. 10 μl of the reaction mixture is then spotted onto a P30 filtermat and washed three times for 5 minutes in 75 mM phosphoric acid and once in methanol prior to drying and scintillation counting.

[2] = biological target: T2, hERG potassium channel (Homo sapiens, UniProt Q12809); assay: Functional hERG assay (patch clamp, HEK-293 cells); format: cell-based; conditions: 5-point dose response, triplicate
T2 construct: expressed in transfected cells; host or cells: HEK-293
T2 sequence (Q12809 whole entry): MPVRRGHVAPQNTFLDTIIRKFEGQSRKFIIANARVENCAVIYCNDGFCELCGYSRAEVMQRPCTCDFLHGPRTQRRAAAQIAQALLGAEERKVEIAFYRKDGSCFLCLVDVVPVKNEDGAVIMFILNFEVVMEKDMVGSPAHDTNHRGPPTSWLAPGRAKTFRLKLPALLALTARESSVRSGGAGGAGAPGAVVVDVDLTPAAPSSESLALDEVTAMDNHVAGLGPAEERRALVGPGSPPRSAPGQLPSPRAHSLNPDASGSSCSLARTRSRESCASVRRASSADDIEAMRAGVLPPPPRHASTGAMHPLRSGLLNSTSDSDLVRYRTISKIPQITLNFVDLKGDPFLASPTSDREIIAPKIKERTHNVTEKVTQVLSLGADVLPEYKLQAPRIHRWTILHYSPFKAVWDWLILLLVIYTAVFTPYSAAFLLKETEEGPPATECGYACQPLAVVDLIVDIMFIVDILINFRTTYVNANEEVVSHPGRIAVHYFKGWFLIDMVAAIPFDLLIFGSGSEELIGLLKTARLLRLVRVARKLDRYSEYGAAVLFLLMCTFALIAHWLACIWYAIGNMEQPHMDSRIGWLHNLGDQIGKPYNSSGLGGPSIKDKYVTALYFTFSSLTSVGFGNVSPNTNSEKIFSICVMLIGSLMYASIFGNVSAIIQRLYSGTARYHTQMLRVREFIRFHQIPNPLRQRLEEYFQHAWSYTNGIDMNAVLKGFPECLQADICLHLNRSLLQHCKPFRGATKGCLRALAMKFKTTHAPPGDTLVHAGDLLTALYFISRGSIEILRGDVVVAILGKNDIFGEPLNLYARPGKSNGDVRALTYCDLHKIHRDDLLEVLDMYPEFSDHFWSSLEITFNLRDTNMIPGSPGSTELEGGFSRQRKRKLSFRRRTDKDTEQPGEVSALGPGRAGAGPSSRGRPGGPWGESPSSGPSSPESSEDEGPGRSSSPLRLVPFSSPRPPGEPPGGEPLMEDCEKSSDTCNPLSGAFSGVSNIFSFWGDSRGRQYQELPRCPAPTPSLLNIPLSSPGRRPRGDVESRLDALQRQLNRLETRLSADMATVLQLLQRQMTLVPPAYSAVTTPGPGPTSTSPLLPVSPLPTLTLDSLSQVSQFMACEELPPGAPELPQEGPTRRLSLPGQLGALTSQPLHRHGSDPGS
Experimental: The N-oxide compounds of the invention and their tertiary amine precursors were each tested for hERG inhibiting activity using the method of Zhou Z, Gong Q, Ye B, Fan Z, Makielski J C, Robertson G A, January C T. Biophys J. 1998 January; 74(1):230-41.
Test compounds were tested in triplicate in a 5-point dose response curve on HEK-293 cells stably expressing the hERG potassium channel. Potassium current was measured using the patch clamp technique on a Molecular Devices Patch Express 7000. hERG channels were activated by 2 second pulses to +20 mV from a holding potential of −80 mV, and peak tail currents were recorded upon repolarization to −50 mV. This voltage-clamp pulse protocol was performed continuously during the experiment (vehicle control, test compound, washout, and positive control additions). An interpulse interval of 15 seconds allowed recovery from any residual inactivation. Test compounds were incubated with cells between 3-8 minutes until the current reached a steady state level, defined by a Standard Deviation of 0.01. After the final test compound concentration was tested, test compound was washed out with continuous perfusion of extracellular solution for 3 minutes, followed by application of positive control (10 μM Cisparide).
Test compounds were diluted in 100% DMSO at 1000× the highest concentration to be tested, vortexed, and sonicated. Visual inspection determined that compounds were completely solubilized. Test compounds were then diluted into glass vials in 100% DMSO for all test concentrations at 1000× the final concentration to be tested and vortexed. Test compounds were then diluted 1:1000 into extracellular solution and vortexed to achieve final concentration for testing. Final DMSO concentration was 0.1% for all concentrations of test compounds, Vehicle (negative) control, and Cisapride (positive) control in extracellular solution. The compositions of the solutions used were as follows:
Intracellular Soln (mM): KCl 130, EDTA 5, MgCl2 5, HEPES10, Na-ATP 5, pH=7.2 Extracellular Soln (mM): NaCl 137, KCl 4, CaCl2 1.8, MgCl2 1, Dextrose 11, HEPES 10, pH=7.4

[3] = biological target: T3, human potassium channel hERG (Homo sapiens, UniProt Q12809); assay: hERG binding activity ([3H] astemizole displacement, HEK-293 membranes); conditions: 1.5 nM [3H] astemizole; for IC50: 60 minutes at 25° C.
T3 construct: expressed in transfected cells; host or cells: HEK-293
T3 sequence (Q12809 whole entry): as above
Experimental: The abilities of the N-oxide compounds of the invention and their tertiary amine precursors were tested using the assay described below.
Human recombinant HEK-293 cells stably transfected with a plasmid encoding the human potassium channel hERG were used to prepare membranes in modified HEPES pH 7.4 buffer using standard techniques. A 10 μg aliquot of membrane was incubated with 1.5 nM [^3H] astemizole in the presence of varying concentrations of test compound for 60 minutes at 25° C. The membranes were then filtered and washed three times and the filters were counted to determine the [^3H] astemizole specifically bound. From the counts, the extent of binding of the test compound and, in some cases, the IC50 values of the test compounds, were determined.

Row | IC50 [1] [nM] | Structure (SMILES) | IC50 [2] [nM] | IC50 [3] [nM] | HERG Binding % @ 100 uM (extent of binding) ([3]; @ 100 uM test compound) [% @ 100 uM]
1 | 41 | CN(C)CCCOc1ccc(Cl)cc1NC(=O)Nc1cnccn1 [Example 1C, 1-[5-Chloro-2-(3-dimethyloxyamino-propoxy)-phenyl]-3-pyrazin-2-yl-urea] | 108 | 5030 | –
2 | 24 | C[N+](C)([O-])CCCOc1ccc(Cl)cc1NC(=O)Nc1cnc(C#N)cn1 [Example 3C, 1-[5-Chloro-2-(3-dimethyloxyamino-propoxy)-phenyl]-3-(5-cyano-pyrazin-2-yl)-urea] | 16300 | – | 46
3 | < 10 | CN(C)CCCOc1ccc(Cl)cc1NC(=O)Nc1cnc(C#N)cn1 [Example 3B, 1-[5-Chloro-2-(3-dimethylamino-propoxy)-phenyl]-3-(5-cyano-pyrazin-2-yl)-urea] | 435 | 5120 | –
4 | 581 | C[N+](C)([O-])CCCOc1ccc(Cl)cc1NC(=O)Nc1ccc(C#N)cn1 [Example 4C, 1-[5-Chloro-2-(3-dimethyloxylamino-propoxy)-phenyl]-3-(5-cyano-pyridin-2-yl)-urea] | 2440 | 7670 | –
